Laboratory results taken from ChEMBL document CHEMBL4507296 (2021).
Calls of active or inactive are those of the source. No cut-off for these calls is given here.

Assays:
[1] = system: Epidermal growth factor receptor (Homo sapiens), P00533 [L858R]; details: Compound concentration 1000.0 nM
[2] = system: Receptor-type tyrosine-protein kinase FLT3 (Homo sapiens), P36888 [UNDEFINED MUTATION]; details: Compound concentration 1000.0 nM
[3] = target: Transient receptor potential cation channel subfamily M member 8 (Homo sapiens, UniProt Q7Z2W7); assay: Cold activation
[4] = system: Tyrosine-protein kinase ABL1 (Homo sapiens), P00519 [T315I]; details: Compound concentration 1000.0 nM
[5] = target: Testis-specific serine/threonine-protein kinase 3 (Homo sapiens) (UniProt Q96PN8); details: Compound concentration 1000.0 nM
[6] = target: Tyrosine-protein kinase Fes/Fps (Homo sapiens) (UniProt P07332); details: Compound concentration 1000.0 nM
[7] = system: Tyrosine-protein kinase ABL1 (Homo sapiens), P00519 [F317I]; details: Compound concentration 1000.0 nM
[8] = target: Proto-oncogene tyrosine-protein kinase ROS (Homo sapiens) (UniProt P08922); details: Compound concentration 1000.0 nM
[9] = target: Serine/threonine-protein kinase Sgk1 (Homo sapiens) (UniProt O00141); details: Compound concentration 1000.0 nM
[10] = target: Wee1-like protein kinase 2 (Homo sapiens) (UniProt P0C1S8); details: Compound concentration 1000.0 nM
[11] = target: Casein kinase I isoform gamma-2 (Homo sapiens) (UniProt P78368); details: Compound concentration 1000.0 nM
[12] = target: Receptor tyrosine-protein kinase erbB-2 (Homo sapiens) (UniProt P04626); details: Compound concentration 1000.0 nM
[13] = target: Serine/threonine-protein kinase PAK 6 (Homo sapiens) (UniProt Q9NQU5); details: Compound concentration 1000.0 nM
[14] = target: MAP/microtubule affinity-regulating kinase 3 (Homo sapiens) (UniProt P27448); details: Compound concentration 1000.0 nM
[15] = target: Serine/threonine-protein kinase PLK3 (Homo sapiens) (UniProt Q9H4B4); details: Compound concentration 1000.0 nM
[16] = target: Muscle, skeletal receptor tyrosine-protein kinase (Homo sapiens) (UniProt O15146); details: Compound concentration 1000.0 nM
[17] = target: Calcium/calmodulin-dependent protein kinase type 1 (Homo sapiens) (UniProt Q14012); details: Compound concentration 1000.0 nM
[18] = target: Serine/threonine-protein kinase 17B (Homo sapiens) (UniProt O94768); details: Compound concentration 1000.0 nM
[19] = target: Serine/threonine-protein kinase RIO3 (Homo sapiens) (UniProt O14730); details: Compound concentration 1000.0 nM
[20] = system: Receptor-type tyrosine-protein kinase FLT3 (Homo sapiens), P36888 [D835Y]; details: Compound concentration 1000.0 nM
[21] = target: Cyclin-dependent kinase 17 (Homo sapiens) (UniProt Q00537); details: Compound concentration 1000.0 nM
[22] = target: 5-hydroxytryptamine receptor 2C (Homo sapiens) (UniProt P28335); details: Compound concentration 10.0 uM
[23] = target: Mitogen-activated protein kinase kinase kinase 2 (Homo sapiens) (UniProt Q9Y2U5); details: Compound concentration 1000.0 nM
[24] = target: Ribosomal protein S6 kinase alpha-6 (Homo sapiens) (UniProt Q9UK32); details: Compound concentration 1000.0 nM
[25] = target: Dual specificity protein kinase TTK (Homo sapiens) (UniProt P33981); details: Compound concentration 1000.0 nM
[26] = target: Calcium/calmodulin-dependent protein kinase type II subunit delta (Homo sapiens) (UniProt Q13557); details: Compound concentration 1000.0 nM
[27] = target: Ribosomal protein S6 kinase alpha-1 (Homo sapiens) (UniProt Q15418); details: Compound concentration 1000.0 nM
[28] = target: BDNF/NT-3 growth factors receptor (Homo sapiens) (UniProt Q16620); details: Compound concentration 1000.0 nM
[29] = target: Aurora kinase A (Homo sapiens) (UniProt O14965); details: Compound concentration 1000.0 nM
[30] = system: Receptor-type tyrosine-protein kinase FLT3 (Homo sapiens), P36888 [N841I]; details: Compound concentration 1000.0 nM
[31] = target: Rho-associated protein kinase 2 (Homo sapiens) (UniProt O75116); details: Compound concentration 1000.0 nM
[32] = target: Serine/threonine-protein kinase NLK (Homo sapiens) (UniProt Q9UBE8); details: Compound concentration 1000.0 nM
[33] = target: Mitogen-activated protein kinase kinase kinase 3 (Homo sapiens) (UniProt Q99759); details: Compound concentration 1000.0 nM
[34] = target: Tyrosine-protein kinase TXK (Homo sapiens) (UniProt P42681); details: Compound concentration 1000.0 nM
[35] = target: Atypical kinase COQ8A, mitochondrial (Homo sapiens) (UniProt Q8NI60); details: Compound concentration 1000.0 nM
[36] = target: Tyrosine-protein kinase Blk (Homo sapiens) (UniProt P51451); details: Compound concentration 1000.0 nM
[37] = system: Mast/stem cell growth factor receptor Kit (Homo sapiens), P10721 [L576P]; details: Compound concentration 1000.0 nM
[38] = target: Serine/threonine-protein kinase Nek10 (Homo sapiens) (UniProt Q6ZWH5); details: Compound concentration 1000.0 nM
[39] = target: RAC-beta serine/threonine-protein kinase (Homo sapiens) (UniProt P31751); details: Compound concentration 1000.0 nM
[40] = target: Dual specificity tyrosine-phosphorylation-regulated kinase 1B (Homo sapiens) (UniProt Q9Y463); details: Compound concentration 1000.0 nM
[41] = target: Myosin light chain kinase (Homo sapiens) (UniProt Q32MK0); details: Compound concentration 1000.0 nM
[42] = target: Serine/threonine-protein kinase TAO1 (Homo sapiens) (UniProt Q7L7X3); details: Compound concentration 1000.0 nM
[43] = target: Angiopoietin-1 receptor (Homo sapiens) (UniProt Q02763); details: Compound concentration 1000.0 nM
[44] = target: MAP kinase-interacting serine/threonine-protein kinase 1 (Homo sapiens) (UniProt Q9BUB5); details: Compound concentration 1000.0 nM
[45] = target: Non-receptor tyrosine-protein kinase TYK2 (Homo sapiens) (UniProt P29597); details: Compound concentration 1000.0 nM

Chain of Ribosomal protein S6 kinase alpha-1 (Homo sapiens) (Q15418 whole entry): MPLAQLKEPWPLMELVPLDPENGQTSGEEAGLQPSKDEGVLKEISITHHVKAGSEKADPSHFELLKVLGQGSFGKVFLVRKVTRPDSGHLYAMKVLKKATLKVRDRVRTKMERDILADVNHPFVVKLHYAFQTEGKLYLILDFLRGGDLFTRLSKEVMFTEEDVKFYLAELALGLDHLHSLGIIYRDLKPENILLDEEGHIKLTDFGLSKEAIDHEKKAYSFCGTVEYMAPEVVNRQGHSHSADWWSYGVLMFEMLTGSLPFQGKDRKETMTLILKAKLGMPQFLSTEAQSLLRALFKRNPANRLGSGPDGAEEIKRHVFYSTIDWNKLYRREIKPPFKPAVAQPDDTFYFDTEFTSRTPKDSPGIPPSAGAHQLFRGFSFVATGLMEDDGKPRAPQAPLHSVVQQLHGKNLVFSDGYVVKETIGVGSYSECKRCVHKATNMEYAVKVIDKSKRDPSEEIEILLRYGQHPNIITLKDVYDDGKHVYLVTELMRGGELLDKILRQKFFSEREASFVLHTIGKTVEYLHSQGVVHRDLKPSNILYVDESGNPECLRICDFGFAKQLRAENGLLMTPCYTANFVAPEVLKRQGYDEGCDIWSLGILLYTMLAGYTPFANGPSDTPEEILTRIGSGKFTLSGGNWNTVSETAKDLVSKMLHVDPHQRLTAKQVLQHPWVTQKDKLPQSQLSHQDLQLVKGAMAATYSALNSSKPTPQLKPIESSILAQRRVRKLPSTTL
Chain of Mast/stem cell growth factor receptor Kit (Homo sapiens), P10721 [L576P] (P10721 whole entry L576P): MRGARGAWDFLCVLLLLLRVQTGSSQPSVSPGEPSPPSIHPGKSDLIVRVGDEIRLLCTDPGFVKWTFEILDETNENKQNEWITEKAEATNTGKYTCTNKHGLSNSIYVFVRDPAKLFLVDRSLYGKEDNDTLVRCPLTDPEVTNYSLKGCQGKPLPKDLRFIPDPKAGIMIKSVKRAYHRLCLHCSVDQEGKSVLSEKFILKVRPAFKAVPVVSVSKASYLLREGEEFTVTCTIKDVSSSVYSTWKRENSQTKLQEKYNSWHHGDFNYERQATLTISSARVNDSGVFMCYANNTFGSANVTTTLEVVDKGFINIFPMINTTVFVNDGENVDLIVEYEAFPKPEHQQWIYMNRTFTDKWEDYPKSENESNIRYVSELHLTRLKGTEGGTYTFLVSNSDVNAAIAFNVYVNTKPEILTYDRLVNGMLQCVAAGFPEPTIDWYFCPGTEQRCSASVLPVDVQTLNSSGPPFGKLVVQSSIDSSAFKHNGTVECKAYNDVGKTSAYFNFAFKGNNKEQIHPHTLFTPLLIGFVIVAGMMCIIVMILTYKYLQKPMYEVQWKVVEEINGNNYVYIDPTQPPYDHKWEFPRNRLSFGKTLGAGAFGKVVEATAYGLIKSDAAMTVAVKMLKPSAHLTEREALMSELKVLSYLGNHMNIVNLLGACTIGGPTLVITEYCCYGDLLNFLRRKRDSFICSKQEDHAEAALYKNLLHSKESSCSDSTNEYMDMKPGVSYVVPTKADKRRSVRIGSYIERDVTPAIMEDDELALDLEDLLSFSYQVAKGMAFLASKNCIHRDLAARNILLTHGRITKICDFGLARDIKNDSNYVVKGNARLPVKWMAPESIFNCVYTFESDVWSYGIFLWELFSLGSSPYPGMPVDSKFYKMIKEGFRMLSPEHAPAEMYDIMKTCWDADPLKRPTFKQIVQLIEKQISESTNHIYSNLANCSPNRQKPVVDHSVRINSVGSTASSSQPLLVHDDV
Chain of Mitogen-activated protein kinase kinase kinase 2 (Homo sapiens) (Q9Y2U5 whole entry): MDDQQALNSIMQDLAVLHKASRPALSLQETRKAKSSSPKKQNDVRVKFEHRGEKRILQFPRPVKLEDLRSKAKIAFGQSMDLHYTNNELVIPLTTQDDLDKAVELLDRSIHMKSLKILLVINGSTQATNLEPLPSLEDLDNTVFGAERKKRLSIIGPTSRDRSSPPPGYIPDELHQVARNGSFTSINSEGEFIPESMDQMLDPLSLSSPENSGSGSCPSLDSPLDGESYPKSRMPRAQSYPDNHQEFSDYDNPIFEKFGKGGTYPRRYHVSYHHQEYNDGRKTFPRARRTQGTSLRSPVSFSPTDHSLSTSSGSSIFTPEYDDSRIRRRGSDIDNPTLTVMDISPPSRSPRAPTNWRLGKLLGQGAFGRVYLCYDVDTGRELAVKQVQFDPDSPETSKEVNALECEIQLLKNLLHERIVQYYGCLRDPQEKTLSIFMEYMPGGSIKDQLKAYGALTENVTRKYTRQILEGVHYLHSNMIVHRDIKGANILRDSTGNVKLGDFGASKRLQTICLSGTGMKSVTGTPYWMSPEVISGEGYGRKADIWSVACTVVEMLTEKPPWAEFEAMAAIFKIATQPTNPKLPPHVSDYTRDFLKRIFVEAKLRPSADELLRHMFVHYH
Chain of Angiopoietin-1 receptor (Homo sapiens) (Q02763 whole entry): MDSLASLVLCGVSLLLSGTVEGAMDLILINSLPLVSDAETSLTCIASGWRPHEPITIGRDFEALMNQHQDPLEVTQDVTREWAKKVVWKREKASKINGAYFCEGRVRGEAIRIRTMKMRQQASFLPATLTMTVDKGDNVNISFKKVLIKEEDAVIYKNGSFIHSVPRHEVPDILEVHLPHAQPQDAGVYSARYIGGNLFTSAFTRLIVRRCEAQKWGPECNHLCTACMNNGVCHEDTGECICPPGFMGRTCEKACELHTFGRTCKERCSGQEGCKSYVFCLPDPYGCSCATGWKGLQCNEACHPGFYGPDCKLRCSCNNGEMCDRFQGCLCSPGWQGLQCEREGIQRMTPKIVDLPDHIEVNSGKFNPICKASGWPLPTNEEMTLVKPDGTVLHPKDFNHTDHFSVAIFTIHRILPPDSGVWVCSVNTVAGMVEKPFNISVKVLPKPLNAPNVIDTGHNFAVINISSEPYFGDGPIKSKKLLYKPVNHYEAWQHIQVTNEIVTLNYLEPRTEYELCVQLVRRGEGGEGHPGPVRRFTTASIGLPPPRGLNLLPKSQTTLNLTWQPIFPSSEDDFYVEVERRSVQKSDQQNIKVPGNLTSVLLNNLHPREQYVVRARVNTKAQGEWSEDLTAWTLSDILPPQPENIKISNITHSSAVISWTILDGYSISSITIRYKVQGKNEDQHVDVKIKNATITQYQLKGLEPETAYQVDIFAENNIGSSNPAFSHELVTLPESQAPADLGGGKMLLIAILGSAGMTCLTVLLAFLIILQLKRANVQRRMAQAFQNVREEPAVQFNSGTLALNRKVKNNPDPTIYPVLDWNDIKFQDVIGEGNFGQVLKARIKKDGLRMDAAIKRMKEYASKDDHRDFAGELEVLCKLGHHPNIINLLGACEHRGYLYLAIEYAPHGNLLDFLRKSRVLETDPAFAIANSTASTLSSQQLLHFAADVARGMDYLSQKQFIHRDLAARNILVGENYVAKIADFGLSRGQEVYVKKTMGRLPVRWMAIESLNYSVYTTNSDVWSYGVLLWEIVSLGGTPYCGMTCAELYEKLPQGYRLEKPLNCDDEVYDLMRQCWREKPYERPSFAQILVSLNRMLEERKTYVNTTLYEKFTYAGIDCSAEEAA
Chain of Serine/threonine-protein kinase Nek10 (Homo sapiens) (Q6ZWH5 whole entry): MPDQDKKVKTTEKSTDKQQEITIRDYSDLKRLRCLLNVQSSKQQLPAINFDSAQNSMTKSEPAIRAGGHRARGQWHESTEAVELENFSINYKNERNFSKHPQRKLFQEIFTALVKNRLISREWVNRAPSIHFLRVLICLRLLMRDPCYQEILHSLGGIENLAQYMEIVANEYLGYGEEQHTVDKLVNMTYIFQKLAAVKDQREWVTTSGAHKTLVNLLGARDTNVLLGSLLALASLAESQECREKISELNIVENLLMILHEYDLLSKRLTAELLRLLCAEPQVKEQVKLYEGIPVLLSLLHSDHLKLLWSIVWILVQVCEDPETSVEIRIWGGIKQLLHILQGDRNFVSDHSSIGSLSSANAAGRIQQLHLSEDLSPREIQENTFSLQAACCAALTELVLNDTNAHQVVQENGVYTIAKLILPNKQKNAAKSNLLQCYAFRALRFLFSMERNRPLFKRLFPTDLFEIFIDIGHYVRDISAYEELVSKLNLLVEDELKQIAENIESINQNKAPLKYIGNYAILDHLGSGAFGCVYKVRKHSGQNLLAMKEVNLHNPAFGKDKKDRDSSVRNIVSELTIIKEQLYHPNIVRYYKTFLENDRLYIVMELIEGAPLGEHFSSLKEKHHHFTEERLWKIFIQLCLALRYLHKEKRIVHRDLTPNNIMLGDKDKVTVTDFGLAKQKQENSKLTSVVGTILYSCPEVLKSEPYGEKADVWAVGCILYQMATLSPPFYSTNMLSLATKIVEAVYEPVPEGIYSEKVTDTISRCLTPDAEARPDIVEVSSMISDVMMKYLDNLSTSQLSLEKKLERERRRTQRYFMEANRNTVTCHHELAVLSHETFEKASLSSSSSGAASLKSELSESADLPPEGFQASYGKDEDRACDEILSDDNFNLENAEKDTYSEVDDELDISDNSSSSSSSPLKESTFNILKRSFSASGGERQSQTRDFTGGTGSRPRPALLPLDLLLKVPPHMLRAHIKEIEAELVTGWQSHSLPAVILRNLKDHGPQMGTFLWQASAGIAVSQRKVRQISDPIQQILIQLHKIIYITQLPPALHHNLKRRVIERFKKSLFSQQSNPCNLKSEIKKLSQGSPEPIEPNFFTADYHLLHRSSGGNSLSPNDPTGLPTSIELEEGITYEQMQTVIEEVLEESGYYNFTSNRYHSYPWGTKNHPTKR
Chain of Serine/threonine-protein kinase Sgk1 (Homo sapiens) (O00141 whole entry): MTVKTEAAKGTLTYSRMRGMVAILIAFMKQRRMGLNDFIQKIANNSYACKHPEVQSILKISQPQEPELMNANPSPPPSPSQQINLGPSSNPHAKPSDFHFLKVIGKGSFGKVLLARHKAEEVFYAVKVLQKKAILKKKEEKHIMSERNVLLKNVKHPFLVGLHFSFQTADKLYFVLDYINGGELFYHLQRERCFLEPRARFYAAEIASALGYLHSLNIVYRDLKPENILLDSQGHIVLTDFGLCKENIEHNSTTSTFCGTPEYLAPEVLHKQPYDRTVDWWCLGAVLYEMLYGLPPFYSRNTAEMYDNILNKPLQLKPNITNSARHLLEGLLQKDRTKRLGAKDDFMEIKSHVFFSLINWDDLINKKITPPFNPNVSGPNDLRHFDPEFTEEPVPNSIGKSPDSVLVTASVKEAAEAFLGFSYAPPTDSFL

In the case of C[C@H](c1ccc(F)cc1)N(Cc1cccc(C(=O)O)c1)C(=O)c1cnc2ccccc2c1 [PF-05105679], the residual activity [1] is reported as 100%, the residual activity [2] is reported as 100% and the IC50 [3] is reported as 0.48 µM (active). The residual activity [4] was 75%, the residual activity [5] was 64% and the residual activity [6] was 100%. It also gave a residual activity [7] of 72%, a residual activity [8] of 100% and a residual activity [9] of 81%. It also gave a residual activity [10] of 100%, a residual activity [11] of 100% and a residual activity [12] of 100%. For the same molecule, the residual activity [13] was 100%, the residual activity [14] was 100% and the residual activity [15] was 100%. The residual activity [16] was 76%, the residual activity [17] was 100% and the residual activity [18] was 80%. For the same molecule, the residual activity [19] was 86%, the residual activity [20] was 100% and the residual activity [21] was 84%. For the same molecule, the inhibition [22] was 6.54%, the residual activity [23] was 100% and the residual activity [24] was 100%. It also gave a residual activity [25] of 100%, a residual activity [26] of 100% and a residual activity [27] of 100%. The residual activity [28] was 100%, the residual activity [29] was 100% and the residual activity [30] was 62%. It also gave a residual activity [31] of 100%, a residual activity [32] of 86% and a residual activity [33] of 100%. It also gave a residual activity [34] of 100%, a residual activity [35] of 85% and a residual activity [36] of 88%. For the same molecule, the residual activity [37] was 94%, the residual activity [38] was 96% and the residual activity [39] was 87%. For the same molecule, the residual activity [40] was 100%, the residual activity [41] was 100% and the residual activity [42] was 100%. The residual activity [43] was 98%, the residual activity [44] was 100% and the residual activity [45] was 100%.
